This is an account of results in PubChem BioAssay (NCI).

Among the test systems are DMS 114 small cell lung; HOP-18 NSCLC; KM20L2 colon; LXFL 529 NSCLC; SNB-78 CNS; XF 498 CNS; DMS 273 small cell lung; P388 leukemia; P388/ADR leukemia; SN12K1 renal; RXF-631 renal.
Experiment in all cases: NCI tumour cell line growth inhibition, 48 h

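1) Cells in 96-well plates. 2) Compound, 48 h, 5 concentrations. 3) Linear interpolation between surrounding doses. 4) Unreached endpoint = highest concentration. GI50 marks 50% less growth. Definition used: TGI = concentration required for complete inhibition of growth.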

Take `N#CN=C(N(Cc1ccccc1)Cc1ccccc1)N(Cc1ccccc1)Cc1ccccc1`: the TGI is > 100 µM in the test on DMS 114 small cell lung; > 100 µM in the test on HOP-18 NSCLC; > 100 µM with KM20L2 colon; > 100 µM with LXFL 529 NSCLC; > 100 µM in the test on SNB-78 CNS; 89.8 µM in the test on XF 498 CNS.

With `CCN(CC)CCC(=O)Nc1ccc2c(c1)C(=O)c1ccc(NC(=O)CCN(CC)CC)cc1C2=O`, the TGI in the test on DMS 114 small cell lung was found to be 13 µM; in the test on DMS 273 small cell lung, 3.82 µM; in the test with HOP-18 NSCLC, 18.4 µM; in the test with KM20L2 colon, 28 µM; in the test with LXFL 529 NSCLC, 12 µM; in the test on SNB-78 CNS, 48.3 µM.

As for `Cc1c2cnccc2c(C)c2c1c1ccccc1n2CCCN`, the TGI in the test with DMS 114 small cell lung worked out at 1.02 µM; with DMS 273 small cell lung, 0.619 µM; in the test with HOP-18 NSCLC it was 2.65 µM; in the test with KM20L2 colon, 0.989 µM; with P388 leukemia it was 0.212 µM; with P388/ADR leukemia it was 0.707 µM. For the same compound, the values for the TGI with SN12K1 renal, in the test with SNB-78 CNS and with XF 498 CNS were 0.831 µM, 2.23 µM and 1.4 µM, respectively.

In the case of `COc1nc(N)c(C(=O)CCl)c(=O)n1C`, the TGI in the test on DMS 114 small cell lung is 33.9 µM; in the test on HOP-18 NSCLC it was 31.2 µM; in the test on KM20L2 colon, 50.1 µM; in the test with LXFL 529 NSCLC, 27.1 µM; in the test with RXF-631 renal, 31.6 µM; in the test on SNB-78 CNS, 40.2 µM. In the test with XF 498 CNS, this compound gave a TGI of 32.6 µM.

On to `CC(=O)NC1=C(NCCC(C)C)C(=O)c2ccccc2C1=O`, for which the TGI with DMS 273 small cell lung, with KM20L2 colon, in the test with LXFL 529 NSCLC, with SNB-78 CNS and with XF 498 CNS was > 50 µM throughout.

Turning to `O=C(Nc1ccc(C2=NCCN2)cc1)c1cncc(C(=O)Nc2ccc(C3=NCCN3)cc2)c1`, the TGI in the test with DMS 114 small cell lung was > 100 µM; in the test with DMS 273 small cell lung, > 100 µM; in the test with HOP-18 NSCLC it was > 100 µM; in the test with KM20L2 colon, > 100 µM; in the test on P388 leukemia it was 82.5 µM; in the test with P388/ADR leukemia, > 100 µM. The TGI in the test on SN12K1 renal, with SNB-78 CNS and with XF 498 CNS was > 100 µM each time.

For the compound `Cc1cccc2c(=O)cc(-c3ccccc3)[nH]c12`, the TGI in the test on DMS 114 small cell lung is > 100 µM; with DMS 273 small cell lung it was > 100 µM; with KM20L2 colon, 19.4 µM; with LXFL 529 NSCLC, > 100 µM; in the test on XF 498 CNS it was > 100 µM.

Regarding `CCOC(=O)C1=C(C)NC(=S)NC1c1ccccc1` (centres undefined), the TGI was > 57.2 µM with DMS 114 small cell lung; > 100 µM in the test with DMS 273 small cell lung; 98.4 µM in the test on HOP-18 NSCLC; > 56.5 µM in the test with KM20L2 colon; > 100 µM in the test on LXFL 529 NSCLC; > 100 µM with RXF-631 renal. For the same compound, the TGI in the test with SNB-78 CNS was > 100 µM; in the test with XF 498 CNS, 99.7 µM.

Regarding `Brc1ccc(N=c2nc3ccccn3n3nc(-c4ccccc4)cc23)cc1`, the TGI with DMS 114 small cell lung was > 100 µM; in the test on HOP-18 NSCLC, > 100 µM; in the test with KM20L2 colon, > 100 µM; in the test on LXFL 529 NSCLC, > 100 µM; in the test with RXF-631 renal it was > 100 µM; with XF 498 CNS it was 77 µM.

Consider `O=C1c2ccccc2C2C1N2C(=O)C(F)(F)F` (centres undefined), for which the TGI with DMS 114 small cell lung, with DMS 273 small cell lung, in the test with HOP-18 NSCLC, in the test with KM20L2 colon, in the test on LXFL 529 NSCLC and in the test with RXF-631 renal was > 100 µM throughout. Further, the TGI with XF 498 CNS is > 100 µM.

As for `O=C1CCC23CC(C=CC=C12)n1c(=O)n(-c2ccccc2)c(=O)n13` (centres undefined), the TGI in the test with DMS 114 small cell lung, in the test with DMS 273 small cell lung, in the test with HOP-18 NSCLC, in the test on P388 leukemia, in the test with P388/ADR leukemia and in the test with SN12K1 renal was > 100 µM throughout. In addition, the TGI in the test on SNB-78 CNS and in the test on XF 498 CNS was > 100 µM throughout.

With `CC(=O)Nc1ccc(-c2nnc(SCC(=O)Nc3ccc([N+](=O)[O-])cc3)o2)cc1`, the TGI in the test on DMS 114 small cell lung came out at 14.6 µM; with DMS 273 small cell lung, 22.6 µM; in the test on HOP-18 NSCLC, 29.9 µM; in the test on KM20L2 colon it was 28.4 µM; with LXFL 529 NSCLC, 20.4 µM; in the test with SNB-78 CNS, 34.3 µM.

For the compound `C[C@]12CC[C@H](O)CC1=CC[C@@H]1C2CC[C@]2(C)C(=O)N(N)C(=O)CC12` (some centres undefined), the TGI with DMS 273 small cell lung, with HOP-18 NSCLC, in the test with KM20L2 colon, in the test on LXFL 529 NSCLC, in the test with RXF-631 renal and with SNB-78 CNS was > 100 µM in each case. In addition, the TGI with XF 498 CNS was > 100 µM.

For the compound `CNS(=O)(=O)NNS(=O)(=O)c1ccc2ccccc2c1`, the TGI in the test with DMS 114 small cell lung, with DMS 273 small cell lung, with HOP-18 NSCLC, in the test with KM20L2 colon, in the test with LXFL 529 NSCLC and in the test with SNB-78 CNS was > 100 µM in each case.

`CCC12C=CCN3CCC4(C(=C(C(=O)OC)[C@@H]1O)Nc1ccccc14)C32` (some centres undefined): the TGI with DMS 114 small cell lung was determined as 3.24 µM; in the test with DMS 273 small cell lung, 3.37 µM; in the test with HOP-18 NSCLC, 4.87 µM; with KM20L2 colon it was 3.54 µM; in the test with LXFL 529 NSCLC, 3.13 µM; with SNB-78 CNS, 7.35 µM. This compound displayed a TGI with XF 498 CNS of 3.05 µM.

For `N.N.N.N.O=[N+]([O-])[O-].[Co+3].[N-]=[N+]=[N-].[N-]=[N+]=[N-]`, the GI50 in the test with DMS 273 small cell lung, in the test with KM20L2 colon, with LXFL 529 NSCLC and with SNB-78 CNS was > 100 µM in each case. For the same compound, the TGI in the test on DMS 273 small cell lung, with KM20L2 colon, with LXFL 529 NSCLC and with SNB-78 CNS was > 100 µM each time.

On to `[N-]=[N+]=Nc1cc(=O)oc2ccccc12`, for which the TGI in the test on DMS 114 small cell lung, with DMS 273 small cell lung, in the test with HOP-18 NSCLC and in the test on LXFL 529 NSCLC was > 100 µM throughout.
